In patent US20250388589A1, “TRICYCLIC HETEROCYCLIC DERIVATIVES, COMPOSITIONS AND USES THEREOF” (Danatlas Pharmaceuticals Co., Ltd., priority 2022, published 2025):

Legend:
Kuramochi cell line = experiment: Cell Viability Assay (Cell Titer-Glo, 7 days); type: cell-based; settings: 168 h, Kuramochi cells, 7 days incubation, read-out: PARG Cell viability (IC50)
How it was run: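 IC50 from a four-parameter fit of CellTiter-Glo luminescence, scaled between DMSO-treated (high) and medium-only (low) wells. Kuramochi cells (400/well, RPMI/10% FBS) exposed 7 days at 37 °C to 9 concentrations, 3-fold steps, in duplicate.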

[1] = biological target: hPARG (C-terminal His6-tag) (Homo sapiens (Human), UniProt Q86W56); experiment: PARG Enzymatic Activity Assay (HTRF); type: biochemical; settings: hPARG 65 pM final, biotinylated-NAD ribosylated PARP1 8 nM final
hPARG (C-terminal His6-tag), sequence (Q86W56 whole entry): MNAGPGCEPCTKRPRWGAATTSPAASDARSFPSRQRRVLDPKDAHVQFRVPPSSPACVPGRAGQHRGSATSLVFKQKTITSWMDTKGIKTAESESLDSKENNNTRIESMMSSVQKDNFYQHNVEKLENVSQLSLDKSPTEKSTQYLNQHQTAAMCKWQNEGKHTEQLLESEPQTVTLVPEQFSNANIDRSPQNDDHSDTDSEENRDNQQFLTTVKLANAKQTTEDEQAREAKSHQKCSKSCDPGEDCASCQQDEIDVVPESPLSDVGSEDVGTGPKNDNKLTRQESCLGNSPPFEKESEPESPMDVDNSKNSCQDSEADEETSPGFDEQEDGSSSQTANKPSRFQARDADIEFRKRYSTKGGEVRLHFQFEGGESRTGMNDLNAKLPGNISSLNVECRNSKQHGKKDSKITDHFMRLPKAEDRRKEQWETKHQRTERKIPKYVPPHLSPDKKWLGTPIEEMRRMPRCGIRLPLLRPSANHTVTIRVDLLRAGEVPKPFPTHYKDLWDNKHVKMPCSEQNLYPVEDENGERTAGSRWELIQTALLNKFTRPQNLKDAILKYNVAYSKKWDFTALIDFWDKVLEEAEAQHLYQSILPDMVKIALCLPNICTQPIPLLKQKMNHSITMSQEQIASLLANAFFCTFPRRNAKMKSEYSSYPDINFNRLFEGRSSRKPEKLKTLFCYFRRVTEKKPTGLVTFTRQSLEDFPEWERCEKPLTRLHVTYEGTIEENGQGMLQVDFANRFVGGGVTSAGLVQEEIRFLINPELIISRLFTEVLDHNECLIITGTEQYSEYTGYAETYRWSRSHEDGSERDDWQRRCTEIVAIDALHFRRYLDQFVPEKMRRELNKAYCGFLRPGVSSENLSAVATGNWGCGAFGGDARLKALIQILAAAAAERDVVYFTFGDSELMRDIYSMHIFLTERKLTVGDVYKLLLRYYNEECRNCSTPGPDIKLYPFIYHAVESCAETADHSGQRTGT
How it was run: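 Readout is time-resolved fluorescence at 620 and 665 nm after 60 min RT detection with streptavidin-Eu cryptate and anti-6HIS-XL665; IC50 by 4-parameter fit, 1% DMSO and no-enzyme controls. Reaction: 8 nM final ribosylated PARP1 substrate for 10 min RT, following 60 min RT enzyme (65 pM)–compound preincubation in Tris pH 7.4 buffer with EDTA, DTT, KCl.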

IC50 [1] [nM] | Compound | IC50 (Kuramochi cell line) [nM]
< 100 | C[C@@H]1CN(c2ncnc3c2c2ccc(S(=O)(=O)NC4(C#N)CC4)cc2n3-c2nnc(C(F)F)s2)CCO1 [Example 21, (R)-N-(1-cyanocyclopropyl)-9-(5-(difluoromethyl)-1,3,4-thiadiazol-2-yl)-4-(2-methylmorpholino)-9H-pyrimido[4,5-b]indole-7-sulfonamide] | 100 to 1000
< 100 | C[C@@H]1CN(c2ncnc3c2c2ccc(S(=O)(=O)NC4(C#N)CC4)cc2n3-c2nnc(C(F)F)s2)C[C@H](C)N1C(=O)CN1CCOCC1 [Example 39, N-(1-Cyanocyclopropyl)-9-(5-(difluoromethyl)-1,3,4-thiadiazol-2-yl)-4-((3R,5S)-3,5-dimethyl-4-(2-morpholinoacetyl)piperazin-1-yl)-9H-pyrimido[4,5-b]indole-7-sulfonamide] | < 100
< 100 | N#CC1(NS(=O)(=O)c2ccc3c4c(N5CCN(c6cccnn6)CC5)ncnc4n(-c4nnc(C(F)F)s4)c3c2)CC1 [Example 19, N-(1-Cyanocyclopropyl)-9-(5-(difluoromethyl)-1,3,4-thiadiazol-2-yl)-4-(4-(pyridazin-3-yl)piperazin-1-yl)-9H-pyrimido[4,5-b]indole-7-sulfonamide] | 100 to 1000
< 100 | Cc1ccc(C(=O)N2CCN(c3ncnc4c3c3ccc(S(=O)(=O)NC5(C#N)CC5)cc3n4-c3nnc(C(F)F)s3)CC2)nc1 [Example 35, N-(1-Cyanocyclopropyl)-9-(5-(difluoromethyl)-1,3,4-thiadiazol-2-yl)-4-(4-(5-methylpicolinoyl)piperazin-1-yl)-9H-pyrimido[4,5-b]indole-7-sulfonamide] | < 100
< 100 | N#CC1(NS(=O)(=O)c2ccc3c4c(N5CCC6(CCOC6)CC5)ncnc4n(-c4nnc(C(F)F)s4)c3c2)CC1 [Example 183, N-(1-Cyanocyclopropyl)-9-(5-(difluoromethyl)-1,3,4-thiadiazol-2-yl)-4-(2-oxa-8-azaspiro[4.5]decan-8-yl)-9H-pyrimido[4,5-b]indole-7-sulfonamide] | < 100
< 100 | CC1(NS(=O)(=O)c2ccc3c4c(C5CCN(C(=O)N6CC[C@H](O)C6)CC5)ncnc4n(-c4nnc(C(F)F)s4)c3c2)CC1 [Example 131, (S)-9-(5-(Difluoromethyl)-1,3,4-thiadiazol-2-yl)-4-(1-(3-hydroxypyrrolidine-1-carbonyl)piperidin-4-yl)-N-(1-methylcyclopropyl)-9H-pyrimido[4,5-b]indole-7-sulfonamide] | < 100
< 100 | N#CC1(NS(=O)(=O)c2ccc3c4c(N5CC6CN(C(=O)C7COC7)CC6C5)ncnc4n(-c4nnc(C(F)F)s4)c3c2)CC1 (centres unmarked) [Example 71, N-(1-Cyanocyclopropyl)-9-(5-(difluoromethyl)-1,3,4-thiadiazol-2-yl)-4-(5-(oxetane-3-carbonyl)hexahydropyrrolo[3,4-c]pyrrol-2(1H)-yl)-9H-pyrimido[4,5-b]indole-7-sulfonamide] | 100 to 1000
< 100 | N#CC1(NS(=O)(=O)c2ccc3c4c(C5CCN(C(=O)N6CC(O)C6)CC5)ncnc4n(-c4nnc(C(F)F)s4)c3c2)CC1 [Example 138, N-(1-cyanocyclo-propyl)-9-(5-(difluoromethyl)-1,3,4-thiadiazol-2-yl)-4-(1-(3-hydroxy-azetidine-1-carbonyl)piperidin-4-yl)-9H-pyrimido [4,5-b]indole-7-sulfonamide] | 100 to 1000
< 100 | CN1CCC[C@H]1C(=O)N1CCC(c2ncnc3c2c2ccc(S(=O)(=O)NC4(C#N)CC4)cc2n3-c2nnc(C(F)F)s2)CC1 [Example 112, N-(1-cyanocyclopropyl)-9-(5-(difluoromethyl)-1,3,4-thiadiazol-2-yl)-4-(1-(methyl-L-prolyl)piperidin-4-yl)-9H-pyrimido[4,5-b]indole-7-sulfonamide] | 100 to 1000
< 100 | N#CC1(NS(=O)(=O)c2ccc3c4c(N5C[C@H]6C[C@@H]5CO6)ncnc4n(-c4nnc(C(F)F)s4)c3c2)CC1 [Example 202, 4-((1R,4R)-2-Oxa-5-azabicyclo[2.2.1]heptan-5-yl)-N-(1-cyanocyclopropyl)-9-(5-(difluoromethyl)-1,3,4-thiadiazol-2-yl)-9H-pyrimido[4,5-b]indole-7-sulfonamide] | < 100
< 100 | CCN(CC)C1CCN(c2ncnc3c2c2ccc(S(=O)(=O)NC4(C#N)CC4)cc2n3-c2nnc(C(F)F)s2)C[C@@H]1F (stereo partly drawn) [Example 206, N-(1-Cyanocyclopropyl)-4-((3S)-4-(diethylamino)-3-fluoropiperidin-1-yl)-9-(5-(difluoromethyl)-1,3,4-thiadiazol-2-yl)-9H-pyrimido[4,5-b]indole-7-sulfonamide] | < 100
< 100 | CC(C)C(=O)N1CC=C(c2ncnc3c2c2cc(F)c(S(=O)(=O)NC4(C#N)CC4)cc2n3-c2nnc(C(F)F)s2)CC1 [Example 91, N-(1-Cyanocyclopropyl)-9-(5-(difluoromethyl)-1,3,4-thiadiazol-2-yl)-6-fluoro-4-(1-isobutyryl-1,2,3,6-tetrahydropyridin-4-yl)-9H-pyrimido[4,5-b]indole-7-sulfonamide] | < 100
< 100 | CC(C)C(=O)N1CCN(c2ncnc3c2c2ccc(S(=O)(=O)NC4(C#N)CC4)cc2n3-c2nnc(C(F)F)s2)CC1 [Example 11, N-(1-Cyanocyclopropyl)-9-(5-(difluoromethyl)-1,3,4-thiadiazol-2-yl)-4-(4-isobutyrylpiperazin-1-yl)-9H-pyrimido[4,5-b]indole-7-sulfonamide] | < 100
< 100 | N#CC1(NS(=O)(=O)c2ccc3c4c(N5CCC(O)CC5)ncnc4n(-c4nnc(C(F)F)s4)c3c2)CC1 [Example 189, N-(1-Cyanocyclopropyl)-9-(5-(difluoromethyl)-1,3,4-thiadiazol-2-yl)-4-(4-hydroxypiperidin-1-yl)-9H-pyrimido[4,5-b]indole-7-sulfonamide] | < 100
< 100 | CC1(C(=O)N2CCN(c3ncnc4c3c3ccc(S(=O)(=O)NC5(C#N)CC5)cc3n4-c3nnc(C(F)F)s3)CC2)CCC1 [Example 4, N-(1-Cyanocyclopropyl)-9-(5-(difluoromethyl)-1,3,4-thiadiazol-2-yl)-4-(4-(1-methylcyclobutane-1-carbonyl)piperazin-1-yl)-9H-pyrimido[4,5-b]indole-7-sulfonamide] | 100 to 1000
< 100 | CN1CC=C(c2ncnc3c2c2ccc(S(=O)(=O)NC4(C#N)CC4)cc2n3-c2nnc(C(F)F)s2)CC1 [Example 77, N-(1-Cyanocyclopropyl)-9-(5-(difluoromethyl)-1,3,4-thiadiazol-2-yl)-4-(1-methyl-1,2,3,6-tetrahydropyridin-4-yl)-9H-pyrimido[4,5-b]indole-7-sulfonamide] | < 100
< 100 | CC(C)(C)[S+]([O-])N1CCN(c2ncnc3c2c2ccc(S(=O)(=O)NC4(C#N)CC4)cc2n3-c2nnc(C(F)F)s2)CC1 (centres unmarked) [Example 70, 4-(4-(Tert-butylsulfinyl)piperazin-1-yl)-N-(1-cyanocyclopropyl)-9-(5-(difluoromethyl)-1,3,4-thiadiazol-2-yl)-9H-pyrimido[4,5-b]indole-7-sulfonamide] | < 100
< 100 | C[C@@H]1CN(C(=O)N(C)C)[C@@H](C)CN1c1ncnc2c1c1ccc(S(=O)(=O)NC3(C)CC3)cc1n2-c1nnc(C(F)F)s1 [Example 100, (2S,5R)-4-(9-(5-(difluoromethyl)-1,3,4-thiadiazol-2-yl)-7-(N-(1-methylcyclopropyl)sulfamoyl)-9H-pyrimido[4,5-b]indol-4-yl)-N,N,2,5-tetramethylpiperazine-1-carboxamide] | < 100
< 100 | CC(C)C(=O)N1CCC(c2ccnc3c2c2ccc(S(=O)(=O)NC4(C#N)CC4)cc2n3-c2nnc(C(F)F)s2)CC1 [Example 197, N-(1-Cyanocyclopropyl)-9-(5-(difluoromethyl)-1,3,4-thiadiazol-2-yl)-4-(1-isobutyrylpiperidin-4-yl)-9H-pyrido[2,3-b]indole-7-sulfonamide] | 100 to 1000
< 100 | CO[C@H](C)C(=O)N1CCC(c2ncnc3c2c2ccc(S(=O)(=O)NC4(C)CC4)cc2n3-c2nnc(C(F)F)s2)CC1 [Example 95, (R)-9-(5-(Difluoromethyl)-1,3,4-thiadiazol-2-yl)-4-(1-(2-methoxypropanoyl)piperidin-4-yl)-N-(1-methylcyclopropyl)-9H-pyrimido[4,5-b]indole-7-sulfonamide] | < 100
< 100 | CC(C)C(=O)N1[C@H](C)CN(c2ncnc3c2c2ccc(S(=O)(=O)NC4(C)CC4)cc2n3-c2nnc(C(F)F)s2)C[C@@H]1C [Example 190, 9-(5-(Difluoromethyl)-1,3,4-thiadiazol-2-yl)-4-((3R,5S)-4-isobutyryl-3,5-dimethylpiperazin-1-yl)-N-(1-methylcyclopropyl)-9H-pyrimido[4,5-b]indole-7-sulfonamide] | < 100
< 100 | C[C@@H](N)C(=O)N1CCC(c2ncnc3c2c2ccc(S(=O)(=O)NC4(C#N)CC4)cc2n3-c2nnc(C(F)F)s2)CC1 [Example 127, 4-(1-(D-Alanyl)piperidin-4-yl)-N-(1-cyanocyclopropyl)-9-(5-(difluoromethyl)-1,3,4-thiadiazol-2-yl)-9H-pyrimido[4,5-b]indole-7-sulfonamide] | 100 to 1000
